Test results from patent US20080242646A1, “Split dose corticosteroid therapy” (priority 2007, published 2008).
Like-named read-outs stand apart in the source and are kept apart here.

How the values were obtained:
[1] = cited from earlier work; for Equivalent dose, Equal to 1 mg prednisolone / Equivalent dose, Equal to 5 mg prednisolone: BNF guidelines
CRP = CRP measurements in the 14 week blinded randomized study; assay type: in vivo, human; conditions: ITT (LOCF)
Source text: The study population had active rheumatoid arthritis.
The powered study ended after these first 10 weeks. […] A schematic of the study design is shown below.

[2] = test system: subjects with active rheumatoid arthritis; conditions: ITT, missing = non-responder, subjects (% of arm)
Source text: ACR-20/50/70 refers to a composite improvement of 20%, 50% or 70% in swollen joint count, tender joint count, and 3 or more of the following 5 measures: patient's own global assessment of RA disease activity; physician's global assessment of disease activity; patient's own assessment of pain due to RA; acute-phase reactant (CRP); and patient's self-addressed disability (Health Assessment Questionnaire).
(§1) We conducted a 14 week blinded, randomized study including a split dose corticosteroid therapy or placebo, with regular CRP and inflammatory cytokine measurements. The study population had active rheumatoid arthritis. The subject must otherwise have been in good general health.
(§2) Screening Visit • Day 1 (Baseline Visit)—Start of Run-In Period • Day 14 (±2 days)—End of Run-In Period/Start of Treatment Period • Day 42 (±2 days) • Day 70 (±2 days)—End of Treatment Period/Start of Withdrawal Period • Day 98 (±2 days)—End of Study
(§3) All eligible subjects received DMARD therapy in a stable dose. Subjects were evaluated for study eligibility at the Screening visit, which was conducted within 14 days before the first dose of study drug. The subject provided written informed consent to participate in the study before any Screening laboratory samples were collected or evaluations performed.
(§4) All subjects were given 3 mg prednisolone alone for 2 weeks (Run-In Period). Subjects were then randomized into treatment groups to additionally receive 10 mg paroxetine, 20 mg paroxetine or placebo tablets for 8 weeks (Combination Treatment Period). The powered study ended after these first 10 weeks. All subjects continued in an un-powered part of the study for an additional 4 weeks (Withdrawal Period). In this portion of the study, half of the subjects on 10 mg or 20 mg paroxetine plus 3 mg prednisolone stopped taking paroxetine, and instead took 3 mg prednisolone plus placebo, while the other half stopped taking prednisolone, and instead took either dose of paroxetine plus placebo. Similarly, half of the subjects on prednisolone plus placebo stopped the prednisolone, and instead took two placebo tablets, while the other half continued the regimen of 3 mg prednisolone plus placebo.

[3] = test system: subjects with active rheumatoid arthritis; conditions: ITT (LOCF)
Source text: A visual analog scale (VAS) provides a measure of a one-dimensional quantity. A VAS generally utilizes a representation of distance, such as a picture of a line with hash marks drawn at regular distance intervals, e.g., ten 1-cm intervals. […] This procedure provides a simple and rapid approach to obtaining quantitative information about how the patient is experiencing pain. VAS scales can also be used, e.g., to measure fatigue.
as §1, §2, §3, §4

[4] = Day 14 (end of run-in, 3 mg prednisolone alone in all arms)

## CC(=O)OCC(=O)[C@@]12N=C(C)O[C@@H]1C[C@H]1[C@@H]3CCC4=CC(=O)C=C[C@]4(C)[C@H]3[C@@H](O)C[C@@]12C [deflazacort]
[1]
  Equivalent dose, Equal to 1 mg prednisolone: 1.2 mg
  Equivalent dose, Equal to 5 mg prednisolone: 6 mg

## CC(=O)OCC(=O)[C@@]1(O)CC[C@H]2[C@@H]3CCC4=CC(=O)CC[C@]4(C)[C@H]3C(=O)C[C@@]21C [cortisone acetate]
[1]
  Equivalent dose, Equal to 1 mg prednisolone: 5 mg
  Equivalent dose, Equal to 5 mg prednisolone: 25 mg

## methyl prednisone
[1]
  Equivalent dose, Equal to 1 mg prednisolone: 0.8 mg
  Equivalent dose, Equal to 5 mg prednisolone: 4 mg

## C[C@]12C=CC(=O)C=C1CC[C@@H]1[C@@H]2[C@@H](O)C[C@@]2(C)[C@H]1CC[C@]2(O)C(=O)CO [3 mg Prednisolone + Placebo, prednisolone]
CRP; [4]
  CRP % Change from baseline, Max: 1700.0%
  CRP % Change from baseline, Mean (Std Dev): 7.11 (215.970) %
  CRP % Change from baseline, Median: −32.26%
  CRP % Change from baseline, Min: −95.8%
  CRP Change from baseline, Max: 77.9
  CRP Change from baseline, Mean (Std Dev): −7.40 (20.149)
  CRP Change from baseline, Median: −1.70
  CRP Change from baseline, Min: −83.2
  CRP Value, Max: 107.3
  CRP Value, Mean (Std Dev): 11.42 (17.413)
  CRP Value, Median: 6.20
  CRP Value, Min: 0.3
CRP; Day 42
  CRP % Change from baseline, Max: 187.3%
  CRP % Change from baseline, Mean (Std Dev): −17.67 (58.589) %
  CRP % Change from baseline, Median: −23.53%
  CRP % Change from baseline, Min: −92.5%
  CRP Change from baseline, Max: 21.5
  CRP Change from baseline, Mean (Std Dev): −8.61 (18.009)
  CRP Change from baseline, Median: −1.00
  CRP Change from baseline, Min: −81.4
  CRP Value, Max: 70.6
  CRP Value, Mean (Std Dev): 10.22 (12.443)
  CRP Value, Median: 5.40
  CRP Value, Min: 0.3
CRP; Day 70
  CRP % Change from baseline, Max: 187.3%
  CRP % Change from baseline, Mean (Std Dev): −13.66 (64.905) %
  CRP % Change from baseline, Median: −29.27%
  CRP % Change from baseline, Min: −92.8%
  CRP Change from baseline, Max: 15.5
  CRP Change from baseline, Mean (Std Dev): −8.95 (18.996)
  CRP Change from baseline, Median: −1.20
  CRP Change from baseline, Min: −87.7
  CRP Value, Max: 64.6
  CRP Value, Mean (Std Dev): 9.88 (11.956)
  CRP Value, Median: 5.70
  CRP Value, Min: 0.2
[2]; [4]
  ACR20 response from baseline: No: 53 (77)
  ACR20 response from baseline: Yes: 16 (23)
  ACR50 response from baseline: No: 64 (93)
  ACR50 response from baseline: Yes: 5 (7)
  ACR70 response from baseline: No: 66 (96)
  ACR70 response from baseline: Yes: 3 (4)
[2]; Day 42
  ACR20 response from baseline: No: 44 (64)
  ACR20 response from baseline: Yes: 25 (36)
  ACR50 response from baseline: No: 60 (87)
  ACR50 response from baseline: Yes: 9 (13)
  ACR70 response from baseline: No: 67 (97)
  ACR70 response from baseline: Yes: 2 (3)
[2]; Day 70
  ACR20 response from baseline: No: 39 (57)
  ACR20 response from baseline: Yes: 30 (43)
  ACR50 response from baseline: No: 55 (80)
  ACR50 response from baseline: Yes: 14 (20)
  ACR70 response from baseline: No: 65 (94)
  ACR70 response from baseline: Yes: 4 (6)
[3]; [4]
  Patient Pain Assessment (VAS) score % Change from baseline, Max: 106.7%
  Patient Pain Assessment (VAS) score % Change from baseline, Mean (Std Dev): −13.65 (38.137) %
  Patient Pain Assessment (VAS) score % Change from baseline, Median: −11.11%
  Patient Pain Assessment (VAS) score % Change from baseline, Min: −94.7%
  Patient Pain Assessment (VAS) score Change from baseline, Max: 35.0
  Patient Pain Assessment (VAS) score Change from baseline, Mean (Std Dev): −7.73 (19.337)
  Patient Pain Assessment (VAS) score Change from baseline, Median: −5.00
  Patient Pain Assessment (VAS) score Change from baseline, Min: −81.0
  Patient Pain Assessment (VAS) score Value, Max: 97.0
  Patient Pain Assessment (VAS) score Value, Mean (Std Dev): 45.58 (25.283)
  Patient Pain Assessment (VAS) score Value, Median: 47.00
  Patient Pain Assessment (VAS) score Value, Min: 2.0
[3]; Day 42
  Patient Pain Assessment (VAS) score % Change from baseline, Max: 186.7%
  Patient Pain Assessment (VAS) score % Change from baseline, Mean (Std Dev): −19.23 (47.955) %
  Patient Pain Assessment (VAS) score % Change from baseline, Median: −23.44%
  Patient Pain Assessment (VAS) score % Change from baseline, Min: −93.5%
  Patient Pain Assessment (VAS) score Change from baseline, Max: 56.0
  Patient Pain Assessment (VAS) score Change from baseline, Mean (Std Dev): −10.57 (21.630)
  Patient Pain Assessment (VAS) score Change from baseline, Median: −9.00
  Patient Pain Assessment (VAS) score Change from baseline, Min: −64.0
  Patient Pain Assessment (VAS) score Value, Max: 97.0
  Patient Pain Assessment (VAS) score Value, Mean (Std Dev): 42.74 (26.143)
  Patient Pain Assessment (VAS) score Value, Median: 37.00
  Patient Pain Assessment (VAS) score Value, Min: 2.0
[3]; Day 70
  Patient Pain Assessment (VAS) score % Change from baseline, Max: 233.3%
  Patient Pain Assessment (VAS) score % Change from baseline, Mean (Std Dev): −17.84 (57.121) %
  Patient Pain Assessment (VAS) score % Change from baseline, Median: −25.64%
  Patient Pain Assessment (VAS) score % Change from baseline, Min: −90.5%
  Patient Pain Assessment (VAS) score Change from baseline, Max: 49.0
  Patient Pain Assessment (VAS) score Change from baseline, Mean (Std Dev): −12.28 (23.864)
  Patient Pain Assessment (VAS) score Change from baseline, Median: −10.00
  Patient Pain Assessment (VAS) score Change from baseline, Min: −69.0
  Patient Pain Assessment (VAS) score Value, Max: 97.0
  Patient Pain Assessment (VAS) score Value, Mean (Std Dev): 41.04 (25.466)
  Patient Pain Assessment (VAS) score Value, Median: 39.00
  Patient Pain Assessment (VAS) score Value, Min: 2.0

## C[C@]12C=CC(=O)C=C1CC[C@H]1[C@@H]3C[C@@H](O)[C@](O)(C(=O)CO)[C@@]3(C)C[C@H](O)[C@@]12F [triamcinolone]
[1]
  Equivalent dose, Equal to 1 mg prednisolone: 0.8 mg
  Equivalent dose, Equal to 5 mg prednisolone: 4 mg
[1]; nasal administration, BNF 37 Mar. 1999
  Broadly similar dose from clinical dosing equivalence: 110 µg

## C[C@]12CCC(=O)C=C1CC[C@@H]1[C@@H]2[C@@H](O)C[C@@]2(C)[C@H]1CC[C@]2(O)C(=O)CO [hydrocortisone]
[1]
  Equivalent dose, Equal to 1 mg prednisolone: 4 mg
  Equivalent dose, Equal to 5 mg prednisolone: 20 mg
